Like-named read-outs stand apart in the source and are kept apart here.
Legend:
[1] = system: 3D7 P. falciparum parasites; test: Growth inhibition assay (72 h, LDH activity); format: cell-based, Plasmodium falciparum; details: for EC50: Plasmodium falciparum
Method: (§1) Parasite growth assays with inhibitory compounds were performed as per[11] and are fully described in the Supplementary Information. […]
(§2) Growth inhibition assays. Synchronised ring-stage parasites (0.3-0.6% parasitemia, 2% haematocrit) were grown for 72 h in a serial-dilution of the compound under […]
(§3) and compound 4. Note that M-833 was first purchased from MolPort (MolPort -002-267-916) then made in-house at WEHI: the differences observed in EC50s across experiments are attributed to the different batches of M -833. For some experiments, 0, 0.25 or 2.5 mM of glucosamine (GlcN) was also added. Experiments were set up in technical duplicates or triplicates. Following a freeze -thaw cycle, lactate dehydrogenase (LDH) activity was assessed as an indicator of parasite growt h 5. 30 μL of parasite culture was incubated for 30 min in the dark with 75 μL Malstat mixture (0.1 M Tris pH 9.0, 20 g/L lactic acid, pH 7.5, 0.2% Triton-X100, 0.5 g/L acetylpyridine adenine dinucleotide (APAD, Sigma), 200 μg/mL nitroblue tetrazolium (NBT; Sigma), 1 μg/mL phenozine ethosulfate (PES; Sigma)). Absorbance was then measured at 650 nm, transformed using the formula below, plotted against the logarithm of the concentrations, and a non-linear regression (log(inhibitor) vs. response, variable slope) was calculated using GraphPad Prism to assess the half-inhibitory […]
(§4) Growth inhibition % = (1 − average(sample)− average(uRBC)) ∗ 100 […]
(§5) The DMSO samples were also used to assess growth of parasite in the presence of 0.25 and 2.5 mM GlcN (normalised by DMSO in 0 mM GlcN). […]

[2] = system: PopE-F10 M-833 resistant clone (PfSTART1 N330K); test: Growth inhibition assay (72 h, LDH activity); format: cell-based, Plasmodium falciparum
Method: The drug was then removed, and parasites were allowed to recover. Another cycle of drug treatment (3 μM M-833) was then resumed. The resistant lines were cloned out by limiting dilution (diluting the culture into a 96-well plate to achieve an average of ~0.3 parasites per well), prior to growth inhibition assays and genomic DNA (gDNA) extraction (DNeasy Blood and Tissue kit (Qiagen)[18].
as §1, §2, §3, §4, §5

## CC(C)(Oc1ccc(Cl)c(S(=O)(=O)N2CCOCC2)c1)C(=O)Nc1ccc(F)c(Cl)c1 [compound 3]
[1]; 3D7, conc. 3.04832 nM, Biological replicate 1 (2021-10-25)
  (av-uRBC) / (DMSO-uRBC) x100: 98.9546
[1]; 3D7, conc. 3.04832 nM, Biological replicate 2 (2021-11-03)
  (av-uRBC) / (DMSO-uRBC) x100: 99.5733
[1]; 3D7, conc. 3.04832 nM, Biological replicate 3 (2021-11-11)
  (av-uRBC) / (DMSO-uRBC) x100: 55.9066
[1]; 3D7, conc. 9.14495 nM, Biological replicate 1 (2021-10-25)
  (av-uRBC) / (DMSO-uRBC) x100: 81.8447
[1]; 3D7, conc. 9.14495 nM, Biological replicate 2 (2021-11-03)
  (av-uRBC) / (DMSO-uRBC) x100: 87.421
[1]; 3D7, conc. 9.14495 nM, Biological replicate 3 (2021-11-11)
  (av-uRBC) / (DMSO-uRBC) x100: 38.3092
[1]; 3D7, conc. 27.4348 nM, Biological replicate 1 (2021-10-25)
  (av-uRBC) / (DMSO-uRBC) x100: 30.9131
[1]; 3D7, conc. 27.4348 nM, Biological replicate 2 (2021-11-03)
  (av-uRBC) / (DMSO-uRBC) x100: 28.899
[1]; 3D7, conc. 27.4348 nM, Biological replicate 3 (2021-11-11)
  (av-uRBC) / (DMSO-uRBC) x100: 16.2848
[1]; 3D7, conc. 82.3045 nM, Biological replicate 1 (2021-10-25)
  (av-uRBC) / (DMSO-uRBC) x100: 11.7409
[1]; 3D7, conc. 82.3045 nM, Biological replicate 2 (2021-11-03)
  (av-uRBC) / (DMSO-uRBC) x100: 11.9543
[1]; 3D7, conc. 82.3045 nM, Biological replicate 3 (2021-11-11)
  (av-uRBC) / (DMSO-uRBC) x100: 7.809
[1]; 3D7, conc. 246.914 nM, Biological replicate 1 (2021-10-25)
  (av-uRBC) / (DMSO-uRBC) x100: 8.8892
[1]; 3D7, conc. 246.914 nM, Biological replicate 2 (2021-11-03)
  (av-uRBC) / (DMSO-uRBC) x100: 10.72
[1]; 3D7, conc. 246.914 nM, Biological replicate 3 (2021-11-11)
  (av-uRBC) / (DMSO-uRBC) x100: 6.2069
[1]; 3D7, conc. 740.741 nM, Biological replicate 1 (2021-10-25)
  (av-uRBC) / (DMSO-uRBC) x100: 8.477
[1]; 3D7, conc. 740.741 nM, Biological replicate 2 (2021-11-03)
  (av-uRBC) / (DMSO-uRBC) x100: 10.3467
[1]; 3D7, conc. 740.741 nM, Biological replicate 3 (2021-11-11)
  (av-uRBC) / (DMSO-uRBC) x100: 4.271
[1]; 3D7, conc. 2222.22 nM, Biological replicate 1 (2021-10-25)
  (av-uRBC) / (DMSO-uRBC) x100: 8.256
[1]; 3D7, conc. 2222.22 nM, Biological replicate 2 (2021-11-03)
  (av-uRBC) / (DMSO-uRBC) x100: 10.0343
[1]; 3D7, conc. 2222.22 nM, Biological replicate 3 (2021-11-11)
  (av-uRBC) / (DMSO-uRBC) x100: 3.637
[1]; 3D7, conc. 6666.67 nM, Biological replicate 1 (2021-10-25)
  (av-uRBC) / (DMSO-uRBC) x100: 8.6332
[1]; 3D7, conc. 6666.67 nM, Biological replicate 2 (2021-11-03)
  (av-uRBC) / (DMSO-uRBC) x100: 8.244
[1]; 3D7, conc. 6666.67 nM, Biological replicate 3 (2021-11-11)
  (av-uRBC) / (DMSO-uRBC) x100: 2.725
[1]; 3D7, conc. 20000 nM, Biological replicate 1 (2021-10-25)
  (av-uRBC) / (DMSO-uRBC) x100: 7.467
[1]; 3D7, conc. 20000 nM, Biological replicate 2 (2021-11-03)
  (av-uRBC) / (DMSO-uRBC) x100: 5.95
[1]; 3D7, conc. 20000 nM, Biological replicate 3 (2021-11-11)
  (av-uRBC) / (DMSO-uRBC) x100: -1.791
[1]; EC50 based
  improvement in antiparasitic activity relative to the activity of M-833: 10 fold
[1]; 3D7, 72 h, Supplementary Table 1, 3D7, 72 h, read-out: EC50
  EC50: 16 nM
[1]; 3D7, Fig 4A, 3D7 parasites, read-out: Pf 3D7 EC50 (SD)
  EC50: 150 nM
[1]; 3D7, text on structure activity relationship (Fig 4A), read-out: EC50, antiparasitic activity
  EC50: 120 nM
[2]; Plasmodium falciparum, 72 h, Supplementary Table 1, PopE-F10 (N330K)
  EC50: 3250 nM
[2]; PopE-F10 (N330K), Fig 4B
  resistance of the line compared with 3D7: highly resistant
[2]; PopE-F10, 3.04832 nM, biological replicate 1
  (av-uRBC) / (DMSO-uRBC) x100: 115.115
[2]; PopE-F10, 3.04832 nM, biological replicate 2
  (av-uRBC) / (DMSO-uRBC) x100: 108.442
[2]; PopE-F10, 3.04832 nM, biological replicate 3
  (av-uRBC) / (DMSO-uRBC) x100: 119.048
[2]; PopE-F10, 9.14495 nM, biological replicate 1
  (av-uRBC) / (DMSO-uRBC) x100: 115.06
[2]; PopE-F10, 9.14495 nM, biological replicate 2
  (av-uRBC) / (DMSO-uRBC) x100: 109.174
[2]; PopE-F10, 9.14495 nM, biological replicate 3
  (av-uRBC) / (DMSO-uRBC) x100: 119.013
[2]; PopE-F10, 27.4348 nM, biological replicate 1
  (av-uRBC) / (DMSO-uRBC) x100: 115.16
[2]; PopE-F10, 27.4348 nM, biological replicate 2
  (av-uRBC) / (DMSO-uRBC) x100: 107.726
[2]; PopE-F10, 27.4348 nM, biological replicate 3
  (av-uRBC) / (DMSO-uRBC) x100: 110.78
[2]; PopE-F10, 82.3045 nM, biological replicate 1
  (av-uRBC) / (DMSO-uRBC) x100: 115.437
[2]; PopE-F10, 82.3045 nM, biological replicate 2
  (av-uRBC) / (DMSO-uRBC) x100: 107.232
[2]; PopE-F10, 82.3045 nM, biological replicate 3
  (av-uRBC) / (DMSO-uRBC) x100: 123.007
[2]; PopE-F10, 246.914 nM, biological replicate 1
  (av-uRBC) / (DMSO-uRBC) x100: 112.345
[2]; PopE-F10, 246.914 nM, biological replicate 2
  (av-uRBC) / (DMSO-uRBC) x100: 106.543
[2]; PopE-F10, 246.914 nM, biological replicate 3
  (av-uRBC) / (DMSO-uRBC) x100: 116.449
[2]; PopE-F10, 740.741 nM, biological replicate 1
  (av-uRBC) / (DMSO-uRBC) x100: 107.602
[2]; PopE-F10, 740.741 nM, biological replicate 2
  (av-uRBC) / (DMSO-uRBC) x100: 102.914
[2]; PopE-F10, 740.741 nM, biological replicate 3
  (av-uRBC) / (DMSO-uRBC) x100: 98.1859
[2]; PopE-F10, 2222.22 nM, biological replicate 1
  (av-uRBC) / (DMSO-uRBC) x100: 85.8267
[2]; PopE-F10, 2222.22 nM, biological replicate 2
  (av-uRBC) / (DMSO-uRBC) x100: 84.9625
[2]; PopE-F10, 2222.22 nM, biological replicate 3
  (av-uRBC) / (DMSO-uRBC) x100: 59.2883
[2]; PopE-F10, 6666.67 nM, biological replicate 1
  (av-uRBC) / (DMSO-uRBC) x100: 37.9433
[2]; PopE-F10, 6666.67 nM, biological replicate 2
  (av-uRBC) / (DMSO-uRBC) x100: 28.6269
[2]; PopE-F10, 6666.67 nM, biological replicate 3
  (av-uRBC) / (DMSO-uRBC) x100: 13.3438
[2]; PopE-F10, 20000 nM, biological replicate 1
  (av-uRBC) / (DMSO-uRBC) x100: 11.6135
[2]; PopE-F10, 20000 nM, biological replicate 2
  (av-uRBC) / (DMSO-uRBC) x100: 7.135
[2]; PopE-F10, 20000 nM, biological replicate 3
  (av-uRBC) / (DMSO-uRBC) x100: 4.744
[2]; Supplementary Table 1, EC50 on PopE-F10 vs 3D7
  Fold change compared to 3D7: 203 fold

Source: publication PMC11189555, “Aryl amino acetamides prevent Plasmodium falciparum ring development via targeting the lipid-transfer protein PfSTART1” (Nature Communications, 2024)
